What all share (type): functional, cell-based
The test system of one experiment is HT-29. As to the kind of experiment: Antiproliferative activity against HT29 cell line. The note with it: Homo sapiens.
The test system of a further experiment is L1210. As to the kind of experiment: Antiproliferative activity against L1210 cell line. The conditions noted are these: Mus musculus.
A further experiment has as its system A549. As to the kind of experiment: Antiproliferative activity against A549 cell line. The conditions noted are these: Homo sapiens.
In the next experiment the test system is V79. As to the kind of experiment: Antiproliferative activity against V79 cell line. The note with it: Cricetulus griseus.

This note sets out measurements from ChEMBL document CHEMBL1146937, “Nitrobenzylcarbamate prodrugs of cytotoxic acridines for potential use with nitroreductase gene-directed enzyme prodrug therapy” (Bioorg Med Chem Lett, 2006).

Calls of active or inactive are those of the source. No cut-off for these calls is given here.

Take `CCOC(=O)Nc1ccc2cc3ccccc3nc2c1COC(=O)OCC`: the concentration for half-maximal inhibition (IC50) with HT-29 was determined as 4.5 µM.

Consider `Nc1ccc2cc3ccccc3nc2c1CO`, for which the outcome in the experiment on L1210 was Active.

Turning to `O=C(Nc1ccc2cc3ccccc3nc2c1CO)OCc1ccc([N+](=O)[O-])cc1`, the IC50 with HT-29 is 2.5 µM; with A549 it was 3.5 µM; in the experiment with V79, 3.5 µM.

In the case of `O=C(Nc1ccc2cc3ccccc3nc2c1COC(=O)OCc1ccc([N+](=O)[O-])cc1)OCc1ccc([N+](=O)[O-])cc1`, the half-maximal inhibitory concentration (IC50) is 9 µM in the experiment on HT-29, more than 10 µM in the experiment with A549 and more than 10 µM with V79.

Usually IC50 stands for the concentration that inhibits the measured activity by half. A low value points to greater potency in that assay.
